Where two headings read alike, the source gives them in different places.
How the values were obtained:
[1] = Solubility of tacrolimus in vehicles (shaken, filtered, HPLC); assay type: physicochemical
Protocol: The solubility of tacrolimus was obtained in Maisine® 35-1, sesame oil, Miglyol® 812, Caspmul MCM EP, Labrafil M 2125 CS, peceol, Capryol 90, Lauroglycol FCC, Span 80, caprylic acid, Transcutol HP, Tween 80 (polysorbate 80), Kolliphor EL (Cremophor EL), labrasol, Vitamin E TPGS, PEG 400, propylene glycol, ethanol, Phosal 50 PG, triethylcitrate, and PEG 3350. In general, tacrolimus (˜15 mg) was added to approximately 250 mg of the vehicles. After the first addition of the API, the mixtures were shaken in a temperature-controlled vortex mixer for 24 hours at 25° C. (50° C. for Vitamin E TPGS and 60° C. for PEG 3350) then examined for solid residues. If no residue was observed, further addition of API was performed until the total API added was ˜55 mg. After the final addition, samples were further shaken at temperature for at least 24 h. After the incubation, each sample was examined visually for solid residues. Suspensions were filtered using a centrifuge tube with 0.45 μm PVDF membrane filter (Millipore Durapore®). The thick filtrate was weighed in to a 5-mL volumetric flask and diluted to mark with the HPLC diluent. Biphasic mixtures were vialed, spun on a centrifuge, and the clear solution was separated from the oily phase. All samples were prepared protected from light.

[2] = cited from earlier work
[3] = cited from earlier work; remark: listed apart in the source

C=CC[C@@H]1/C=C(\C)C[C@H](C)C[C@H](OC)[C@H]2O[C@@](O)(C(=O)C(=O)N3CCCC[C@H]3C(=O)O[C@H](/C(C)=C/[C@@H]3CC[C@@H](O)[C@H](OC)C3)[C@H](C)[C@@H](O)CC1=O)[C@H](C)C[C@@H]2OC (relative stereo) [Tacrolimus, [3S-[3R*[E(1S*,3S*,4S*)], 4S*,5R*,8S*,9E,12R*,14R*,15S*,16R*,18S*, 19S*,26-aR*]]-5,6,8,11,12,13,14,15,16,17,18,19,24,25,26a-hexadecahydro-5,19-dihydroxy-3-[2-(4-hydroxy-3-methoxycyclohexyl)-1-methylethenyl]-14,16-dimethoxy-4,10,12,18-tetramethyl-8-(2-propenyl)-15,19-epoxy-3H-pyrido [2,1-c][1,4]oxazacyclotricosine-1,7,20,21 (4H,23H)-tetrone, monohydrate]
solubility ([1]; in Capryol 90, 25° C.): > 56 mg of API per gram of solvent
solubility ([1]; in Caspmul MCM EP, 25° C.): > 56 mg of API per gram of solvent
solubility ([1]; in PEG 400, 25° C.): > 56 mg of API per gram of solvent
solubility ([1]; in PEG 3350, 60° C.): > 56 mg of API per gram of solvent
solubility ([1]; in Phosal 50 PG, 25° C.): > 56 mg of API per gram of solvent
solubility ([1]; in Vitamin E TPGS, 50° C.): > 56 mg of API per gram of solvent
solubility ([1]; in caprylic acid, 25° C.): > 56 mg of API per gram of solvent
solubility ([1]; in ethanol, 25° C.): > 56 mg of API per gram of solvent
solubility ([1]; in labrasol, 25° C.): > 56 mg of API per gram of solvent
solubility ([1]; in propylene glycol, 25° C.): > 56 mg of API per gram of solvent
solubility ([1]; in triethylcitrate, 25° C.): > 56 mg of API per gram of solvent
solubility ([2]; in chloroform): very soluble
solubility ([2]; in ethanol): freely soluble
solubility ([2]; in methanol): very soluble
solubility ([2]; in water): practically insoluble
time to peak concentration ([3]; after oral administration): 0.5 to 4 h
volume of distribution (VolD) based on plasma ([3]; based on plasma): 5 to 65 L/kg of body weight
half-life for distribution ([3]; in vivo): 54 min
protein binding ([3]; in vivo): 75 to 99%
whole blood concentrations relative to plasma concentrations ([3]; in vivo): 12 to 67 times
bioavailability of the oral dosage form (range) ([3]; oral): 5 to 65%
mean bioavailability of the oral dosage form ([3]; oral): about 27%

Reference: US20260021051A1, “PHARMACEUTICAL FORMULATIONS” (VIVUS LLC, priority 2015, published 2026)
